2 molecules from publication PMC12690121 (Nature Communications, 2025) can be followed below.

The target in one data set is T1, ArnC (Salmonella enterica, UniProt O52324).
T1 sequence (O52324 1-327): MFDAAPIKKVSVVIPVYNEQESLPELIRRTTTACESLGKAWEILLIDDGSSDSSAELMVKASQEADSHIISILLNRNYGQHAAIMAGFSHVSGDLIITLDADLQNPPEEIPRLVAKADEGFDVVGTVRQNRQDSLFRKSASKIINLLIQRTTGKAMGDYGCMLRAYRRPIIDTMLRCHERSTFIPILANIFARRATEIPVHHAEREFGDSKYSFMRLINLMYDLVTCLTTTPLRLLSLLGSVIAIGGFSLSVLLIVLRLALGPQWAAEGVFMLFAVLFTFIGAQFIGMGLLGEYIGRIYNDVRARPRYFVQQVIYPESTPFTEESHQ
In words: MST. In kind it is binding.

The data set “cryo-EM structure” deals with the molecule itself. Put plainly: cryo-EM structure.

With `O=c1ccn([C@@H]2O[C@H](COP(=O)(O)OP(=O)(O)O)[C@@H](O)[C@H]2O)c(=O)[nH]1` [UDP], on ArnC, the equilibrium dissociation constant (Kd) (in general, the constant that tells how readily two partners part at equilibrium) came out at 8.5 µM.

B1: ArnC from Salmonella enterica (ArnCSe) (enzyme)
chain: T1 sequence (O52324 1-327)
For the molecule B1, in the data set “cryo-EM structure”, the stoichiometry N (usually a count of units in the complex or per binding partner) is 4.
